{"source": "patent US20230405068A1", "about": "“RADIATION-INDUCED FIBROSIS TREATMENT” (Handelsselskabet af 20.10.2020 ApS, priority 2020, published 2023)", "origin": "cited, not measured here", "key": {"[1]": {"system": "radiation-induced dermatitis", "settings": "rats"}, "[2]": {"system": "radiation-induced dermatitis", "settings": "mice; applied topically"}, "[3]": {"system": "radiation-induced skin fibrosis", "settings": "intramuscular injection; humans"}, "[4]": {"system": "radiation-induced skin fibrosis", "settings": "intramuscular injection; pigs"}}, "note": "Where two headings read alike, the source gives them in different places.", "data": [{"molecule": "CC(=O)N[C@@H](CS)C(=O)O", "note": "[N-acetylcysteine]", "values": [{"measurement": "protection from radiation-induced dermatitis", "setting": "[1]", "result": "significantly protects"}]}, {"molecule": "CC1(C)CC[C@]2(NC(=O)C(C)(F)F)CC[C@]3(C)[C@H](C(=O)C=C4[C@@]5(C)C=C(C#N)C(=O)C(C)(C)[C@@H]5CC[C@]43C)[C@@H]2C1", "note": "[RTA 408, omaveloxolone]", "values": [{"measurement": "protection from radiation-induced dermatitis", "setting": "[2]", "result": "allegedly protecting"}]}, {"molecule": "N[C@@H](CCC(=O)N[C@@H](CS)C(=O)NCC(=O)O)C(=O)O", "note": "[glutathione]", "values": [{"measurement": "mitochondrial lipid peroxidation", "setting": "radiation-induced injury", "result": "limit mitochondrial lipid peroxidation"}, {"measurement": "protection from radiation-induced injury", "setting": "radiation-induced injury", "result": "protect from radiation-induced injury"}]}, {"molecule": "NCCCNCCSP(=O)(O)O", "note": "[amifostine]", "values": [{"measurement": "mitochondrial lipid peroxidation", "setting": "radiation-induced injury", "result": "limit mitochondrial lipid peroxidation"}, {"measurement": "protection from radiation-induced injury", "setting": "radiation-induced injury", "result": "protect from radiation-induced injury"}]}, {"molecule": "Sod1 (Cu—Zn) protein: Sod1 (Cu—Zn) protein given by intramuscular injection", "values": [{"measurement": "protection from radiation-induced skin fibrosis", "setting": "[3]", "result": "protected"}, {"measurement": "protection from radiation-induced skin fibrosis", "setting": "[4]", "result": "protected"}]}]}
